In patent US20250268859A1, “OXAFURAMINE, (1R)-N-ETHYL-1-[(2R)-OXOLAN-2-YL]-2-[…], HYDROCHLORIDE AND DERIVATIVES THEREOF FOR TREATING ALZHEIMER'S DISEASE (AD), […] […], […] WITH LEWY BODIES (DLB), MIXED […], FRON[…] DEGENERATION (FTLD), AND PARKINSON'S DISEASE (PD)” (NLS Pharmaceutics AG, priority 2021, published 2025):
Structures can show the parent of a compound that is named as a salt.

Key:
Format in all cases: in vivo, C57BL/6J, male
[1] = Body weight of the mice in the NOR study; conditions: Donepezil 2 mg/kg i.p. group; mean, N = 16
From the text: (§1) Statistical analyses: • Read-outs: DI, N-F, ST, CT, N, F • Unpaired Student's t test: Donep 2 group vs. Control group. • One-way ANOVA, Dunnett test: • NLS-12 groups vs. Control group. • NLS-12 groups vs. Donep 2 group. • Read-outs: DI and N-F, for all groups, paired Student's t test, difference vs. 0. • Body weight: one-way ANOVA.

[2] = system: memory (recognition of the familiar object) in mice; assay: Novel Object Recognition (NOR) test in mice; conditions: mean, N = 16
Description: The test was carried out in circular boxes (30 cm diameter, 40 cm high). The objects to be discriminated (L≈1≈h≈3-4 cm) differed in both color and shape and were referred as yellow duck and blue lego. They were fixed with a magnet to the floor of the boxes at 5 cm of the wall, 20 cm distant. Apparently, they have no natural significance for mice and they have never been associated with a reinforcement. In order to rule out the possibility of scent traces left on the objects and therefore the dependency of the recognition capacity of mice on the olfactory cue, the objects and the ground of the box were washed with an odorless disinfectant (Sanicid® diluted in water) and dried between each trial. A camcorder was fixed to the ceiling above the box to record the animals' activity. The experiment was analyzed blindly at a later time.
On the week before the test, animals were handled by the experimenter in charge of the experiment in order to be not stressed at the time of testing. For this purpose, the experimenter placed a small amount of litter, and then the mouse on its hand.
The NOR test was completed over five days (see FIG. 1): • Day 1: Habituation trial. Animals were individually placed for a 15-min free exploration session in empty open boxes. • Day 2. Treatment administration and sample trial. […] They were individually placed 30 min after in the apparatus for a 6-min session with two identical objects (Duck, 50% of animals or Lego, 50% of animals). • Day 3. Choice trial. The mice were individually placed for a 6-min session in the apparatus with two objects (Duck and Lego), one of the objects presented in sample trials (termed as familiar objects) and a novel object (Lego, 50% of animals or Duck, 50% of animals).
The sample and choice trials were recorded with the camera located above the apparatus. The time spent by mice in exploring the objects was measured during the sample trial and the choice trial. Exploration of an object was defined as follows: directing the nose to the object at a distance≤2 cm and/or touching it with the nose or forelimbs; turning around or biting the object, or sitting on the object were not considered as exploratory behavior.
• L=exploration time of the left object in the sample trial. • R=exploration time of the right object in the sample trial. • N=exploration time of the new object in the choice trial. • F=exploration time of the familiar object in the choice trial.
• Exploration indices: • ST=L+R=exploration time (left object+right object) in the sample trial. • CT=N+F=exploration time (new object+familiar object) in the choice trial. • Two memory indices: • N-F=difference of exploration time between the new object and the familiar object in the choice trial.
as §1

[3] = system: memory (recognition of the familiar object) in mice; assay: Novel Object Recognition (NOR) test in mice; conditions: Donepezil 2 mg/kg i.p., 72 h post treatment, mean, N = 16

Which results are given for COc1cc2c(cc1OC)C(=O)C(CC1CCN(Cc3ccccc3)CC1)C2 (stereo not shown) [Donepezil, Donepezil hydrochloride, reference compound]?
BW Body weight [1]: 23.2 g; N − F Exploration time novel − familiar object ([2]; Donepezil 2 mg/kg i.p. 30 min before sample trial, choice trial): 4.3 s; ST Exploration time in the sample trial ([2]; Donepezil 2 mg/kg i.p., 30 min post treatment): 20.2 s; ST Exploration time in the sample trial (s) ([2]; Donepezil 2 mg/kg i.p., 30 min post treatment, hydrochloride): decreased the exploration time during the sample trial; N Exploration time of novel object ([2]; Donepezil 2 mg/kg i.p., choice trial): 13.1 s; CT Exploration time in the choice trial (s) = N + F [3]: 21.7 s; CT Exploration time in the choice trial (s) = N + F ([3]; hydrochloride): did not significantly modify the exploration time during the choice trial
